Here are results for 23 molecules from patent US10045983B2, “Heteroaryl pyridone and aza-pyrodine compounds” (Genentech, Inc., priority 2011, dated 2018).

A short description of the experiment: CD69 Whole Blood Assay (CD69 Hu Blood FACS). The format is cell-based, human. The conditions noted are these: Lymphocyte; human whole blood, anti-IgM activated B lymphocytes, FACS; IC70; Table 2 (unit inferred); read-out: CD69 Hu Blood FACS (IC70). Put shortly: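 Compounds tested for blocking B-cell CD69 induction by flow cytometry in human whole blood, with activation via anti-human IgM goat F(ab′)2 crosslinking of surface IgM.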
On to `Cn1cc(-c2ccnc(N3CCn4c(cc5c4CC(C)(C)C5)C3=O)c2CO)cc(Nc2ccc(C3CC3)cn2)c1=O` [Example 278, 3-[4-[5-[(5-cyclopropyl-2-pyridyl)amino]-1-methyl-6-oxo-3-pyridyl]-3-(hydroxymethyl)-2-pyridyl]-7,7-dimethyl-1,2,6,8-tetrahydrocyclopenta[3,4]pyrrolo[3,5-b]pyrazin-4-one], for which the IC70 – broadly, the concentration needed for an effect of 70% – amounted to 3.2 µM.

Regarding `Cn1cc(-c2ccnc(N3CCn4c(cc5c4CC(C)(C)C5)C3=O)c2CO)cc(Nc2ccc(C(F)(F)F)cn2)c1=O` [Example 279, 3-[3-(hydroxymethyl)-4-[1-methyl-6-oxo-5-[[5-(trifluoromethyl)-2-pyridyl]amino]-3-pyridyl]-2-pyridyl]-7,7-dimethyl-1,2,6,8-tetrahydrocyclopenta[3,4]pyrrolo[3,5-b]pyrazin-4-one], the IC70 came to 2.1 µM.

For `Cn1nc(Nc2cc(-c3ccnc(N4CCn5c(cc6c5CC(C)(C)C6)C4=O)c3CO)cn(C)c2=O)cc1C(=O)N1CCOCC1` [Example 280, 3-[3-(hydroxymethyl)-4-[1-methyl-5-[[1-methyl-5-(morpholine-4-carbonyl)pyrazol-3-yl]amino]-6-oxo-3-pyridyl]-2-pyridyl]-7,7-dimethyl-1,2,6,8-tetrahydrocyclopenta[3,4]pyrrolo[3,5-b]pyrazin-4-one], the IC70 turned out to be 0.0141 µM.

For `Cc1ccc(Nc2cc(-c3ccnc(N4CCn5c(cc6c5CC(C)(C)C6)C4=O)c3CO)cn(C)c2=O)nc1` [Example 281, 3-[3-(hydroxymethyl)-4-[1-methyl-5-[(5-methyl-2-pyridyl)amino]-6-oxo-3-pyridyl]-2-pyridyl]-7,7-dimethyl-1,2,6,8-tetrahydrocyclopenta[3,4]pyrrolo[3,5-b]pyrazin-4-one], the concentration for an effect of 70% (IC70) is 0.718 µM.

As to `C[C@H]1CN(C2COC2)CCN1c1ccc(Nc2cc(-c3ccnc(-n4ncc5c6c(sc5c4=O)CC(C)(C)C6)c3CO)cn(C)c2=O)nc1` [Example 282, 3-[3-(hydroxymethyl)-4-[1-methyl-5-[[5-[(2S)-2-methyl-4-(oxetan-3-yl)piperazin-1-yl]-2-pyridyl]amino]-6-oxo-3-pyridyl]-2-pyridyl]-7,7-dimethyl-6,8-dihydrocyclopenta[3,4]thieno[1,3-d]pyridazin-4-one], the IC70 came to 0.0174 µM.

For `Cc1cc(Nc2cc(-c3ccnc(N4CCn5c(cc6c5CC(C)(C)C6)C4=O)c3CO)cn(C)c2=O)no1` [Example 283, 3-[3-(hydroxymethyl)-4-[1-methyl-5-[(5-methylisoxazol-3-yl)amino]-6-oxo-3-pyridyl]-2-pyridyl]-7,7-dimethyl-1,2,6,8-tetrahydrocyclopenta[3,4]pyrrolo[3,5-b]pyrazin-4-one], the concentration for an effect of 70% (IC70) is 0.143 µM.

As to `Cn1cc(-c2ccnc(N3CCc4c(c(F)c5n4CCCC5)C3=O)c2CO)cc(Nc2cc3n(n2)CCN(C2COC2)C3)c1=O` [Example 284, 10-fluoro-2-[3-(hydroxymethyl)-4-[1-methyl-5-[[5-(oxetan-3-yl)-6,7-dihydro-4H-pyrazolo[1,5-a]pyrazin-2-yl]amino]-6-oxo-3-pyridyl]-2-pyridyl]-3,4,6,7,8,9-hexahydropyrido[3,4-b]indolizin-1-one], the IC70 was determined as 0.131 µM.

Turning to `Cn1cc(-c2ccnc(N3CCn4c(cc5c4CC(C)(C)C5)C3=O)c2CO)cc(Nc2cn(C3COC3)cn2)c1=O` [Example 285, 3-[3-(hydroxymethyl)-4-[1-methyl-5-[[1-(oxetan-3-yl)imidazol-4-yl]amino]-6-oxo-3-pyridyl]-2-pyridyl]-7,7-dimethyl-1,2,6,8-tetrahydrocyclopenta[3,4]pyrrolo[3,5-b]pyrazin-4-one], the IC70 was 0.175 µM.

As for `Cn1cc(-c2ccnc(N3CCn4c(cc5c4CC(C)(C)C5)C3=O)c2CO)cc(Nc2ccon2)c1=O` [Example 286, 3-[3-(hydroxymethyl)-4-[5-(isoxazol-3-ylamino)-1-methyl-6-oxo-3-pyridyl]-2-pyridyl]-7,7-dimethyl-1,2,6,8-tetrahydrocyclopenta[3,4]pyrrolo[3,5-b]pyrazin-4-one], the IC70 was determined as 0.167 µM.

On to `CC1c2cc(Nc3cc(-c4ccnc(N5CCn6c(cc7c6CCCC7)C5=O)c4CO)cn(C)c3=O)nn2CCN1C` (centres unmarked) [Example 287, 2-[4-[5-[(4,5-dimethyl-6,7-dihydro-4H-pyrazolo[1,5-a]pyrazin-2-yl)amino]-1-methyl-6-oxo-3-pyridyl]-3-(hydroxymethyl)-2-pyridyl]-3,4,6,7,8,9-hexahydropyrazino[1,2-a]indol-1-one], for which the concentration for an effect of 70% (IC70) is 0.127 µM.

Take `Cc1cc(Nc2cc(-c3ccnc(-n4ncc5c6c(sc5c4=O)CC(C)(C)C6)c3CO)cn(C)c2=O)no1` [Example 288, 3-[3-(hydroxymethyl)-4-[1-methyl-5-[(5-methylisoxazol-3-yl)amino]-6-oxo-3-pyridyl]-2-pyridyl]-7,7-dimethyl-6,8-dihydrocyclopenta[3,4]thieno[1,3-d]pyridazin-4-one]: the IC70 amounted to 0.229 µM.

Consider `Cn1cc(-c2ccnc(N3CCn4c(cc5c4CC(C)(C)C5)C3=O)c2CO)cc(Nc2cc[nH]n2)c1=O` [Example 289, 3-[3-(hydroxymethyl)-4-[1-methyl-6-oxo-5-(1H-pyrazol-3-ylamino)-3-pyridyl]-2-pyridyl]-7,7-dimethyl-1,2,6,8-tetrahydrocyclopenta[3,4]pyrrolo[3,5-b]pyrazin-4-one], for which the concentration for an effect of 70% (IC70) is 0.214 µM.

With `Cn1ccc(Nc2cc(-c3ccnc(N4CCn5c(cc6c5CC(C)(C)C6)C4=O)c3CO)cn(C)c2=O)n1` [Example 290, 3-[3-(hydroxymethyl)-4-[1-methyl-5-[(1-methylpyrazol-3-yl)amino]-6-oxo-3-pyridyl]-2-pyridyl]-7,7-dimethyl-1,2,6,8-tetrahydrocyclopenta[3,4]pyrrolo[3,5-b]pyrazin-4-one], the concentration for an effect of 70% (IC70) worked out at 0.113 µM.

For `Cc1cc(Nc2cc(-c3ccnc(-n4ncc5c6c(sc5c4=O)CCCC6)c3CO)cn(C)c2=O)no1` [Example 291, 3-[3-(hydroxymethyl)-4-[1-methyl-5-[(5-methylisoxazol-3-yl)amino]-6-oxo-3-pyridyl]-2-pyridyl]-6,7,8,9-tetrahydrobenzothiopheno[2,3-d]pyridazin-4-one], the IC70 is 0.843 µM.

As to `Cc1cc(Nc2cc(-c3ccnc(-n4ncc5c6c(sc5c4=O)CC(C)(C)C6)c3CO)cn(C)c2=O)nn1C` [Example 292, 3-[4-[5-[(1,5-dimethylpyrazol-3-yl)amino]-1-methyl-6-oxo-3-pyridyl]-3-(hydroxymethyl)-2-pyridyl]-7,7-dimethyl-6,8-dihydrocyclopenta[3,4]thieno[1,3-d]pyridazin-4-one], the IC70 was found to be 0.118 µM.

On to `Cn1cc(Nc2cc(-c3ccnc(N4CCn5c(cc6c5CC(C)(C)C6)C4=O)c3CO)cn(C)c2=O)nn1` [Example 293, 3-[3-(hydroxymethyl)-4-[1-methyl-5-[(1-methyltriazol-4-yl)amino]-6-oxo-3-pyridyl]-2-pyridyl]-7,7-dimethyl-1,2,6,8-tetrahydrocyclopenta[3,4]pyrrolo[3,5-b]pyrazin-4-one], for which the IC70 was 0.0691 µM.

Regarding `Cn1cc(-c2ccnc(N3CCn4c(cc5c4CC(C)(C)C5)C3=O)c2CO)cc(Nc2cc(C(C)(C)C)on2)c1=O` [Example 294, 3-[4-[5-[(5-tert-butylisoxazol-3-yl)amino]-1-methyl-6-oxo-3-pyridyl]-3-(hydroxymethyl)-2-pyridyl]-7,7-dimethyl-1,2,6,8-tetrahydrocyclopenta[3,4]pyrrolo[3,5-b]pyrazin-4-one], the IC70 came to 0.276 µM.

As for `CCc1cc(Nc2cc(-c3ccnc(N4CCn5c(cc6c5CC(C)(C)C6)C4=O)c3CO)cn(C)c2=O)no1` [Example 295, 3-[4-[5-[(5-ethylisoxazol-3-yl)amino]-1-methyl-6-oxo-3-pyridyl]-3-(hydroxymethyl)-2-pyridyl]-7,7-dimethyl-1,2,6,8-tetrahydrocyclopenta[3,4]pyrrolo[3,5-b]pyrazin-4-one], the 70% effect concentration (IC70) turned out to be 0.134 µM.

In the case of `COCCN1CCn2nc(Nc3cc(-c4ccnc(N5CCn6c(cc7c6CC(C)(C)C7)C5=O)c4CO)cn(C)c3=O)cc2C1` [Example 296, 3-[3-(hydroxymethyl)-4-[5-[[5-(2-methoxyethyl)-6,7-dihydro-4H-pyrazolo[1,5-a]pyrazin-2-yl]amino]-1-methyl-6-oxo-3-pyridyl]-2-pyridyl]-7,7-dimethyl-1,2,6,8-tetrahydrocyclopenta[3,4]pyrrolo[3,5-b]pyrazin-4-one], the 70% effect concentration (IC70) turned out to be 0.0193 µM.

In the case of `CN1CCn2nc(Nc3cc(-c4ccnc(N5CCn6c(cc7c6CC(C)(C)C7)C5=O)c4CO)nn(C)c3=O)cc2C1` [Example 297, 3-[3-(hydroxymethyl)-4-[1-methyl-5-[(5-methyl-6,7-dihydro-4H-pyrazolo[1,5-a]pyrazin-2-yl)amino]-6-oxo-pyridazin-3-yl]-2-pyridyl]-7,7-dimethyl-1,2,6,8-tetrahydrocyclopenta[3,4]pyrrolo[3,5-b]pyrazin-4-one], the concentration for an effect of 70% (IC70) amounted to 0.14 µM.

In the case of `Cn1cc(-c2ccnc(N3CCn4c(cc5c4CC(C)(C)C5)C3=O)c2CO)cc(Nc2cnc(C#N)cn2)c1=O` [Example 298, 5-[[5-[2-(7,7-dimethyl-4-oxo-1,2,6,8-tetrahydrocyclopenta[3,4]pyrrolo[3,5-b]pyrazin-3-yl)-3-(hydroxymethyl)-4-pyridyl]-1-methyl-2-oxo-3-pyridyl]amino]pyrazine-2-carbonitrile], the IC70 was 0.869 µM.

Regarding `Cn1cc(-c2ccnc(N3CCn4c(cc5c4CC(C)(C)C5)C3=O)c2CO)cc(Nc2cc(-c3ccccc3)on2)c1=O` [Example 299, 3-[3-(hydroxymethyl)-4-[1-methyl-6-oxo-5-[(5-phenylisoxazol-3-yl)amino]-3-pyridyl]-2-pyridyl]-7,7-dimethyl-1,2,6,8-tetrahydrocyclopenta[3,4]pyrrolo[3,5-b]pyrazin-4-one], the IC70 was 2.1 µM.

For `COC[C@@H](C)N1CCn2nc(Nc3cc(-c4ccnc(N5CCn6c(cc7c6CC(C)(C)C7)C5=O)c4CO)cn(C)c3=O)cc2C1` [Example 300, (R)-2-(3′-(hydroxymethyl)-5-((5-(1-methoxypropan-2-yl)-4,5,6,7-tetrahydropyrazolo[1,5-a]pyrazin-2-yl)amino)-1-methyl-6-oxo-1,6-dihydro-[3,4′-bipyridin]-2′-yl)-7,7-dimethyl-2,3,4,6,7,8-hexahydro-1H-cyclopenta[4,5]pyrrolo[1,2-a]pyrazin-1-one], the concentration for an effect of 70% (IC70) came to 0.024 µM.
